Numbers after ± are expanded uncertainties.
What was measured:
[1] = xn = mol fraction of the nth substance listed; details: 101 kPa, Liquid; for speed of sound: Single path-length method; for mass density: Vibrating tube method
[2] = refractive index (Na D-line) (dimensionless); xn = mol fraction of the nth substance listed; details: 101 kPa, Liquid, Standard Abbe refractometry

CCCC(C)=O [pentan-2-one] + CC(C)O
Details	mass density, [1] [kg/m3]	refractive index, [2]	speed of sound, [1] [m/s]
298.15 K, x1 = 0.0978	782.98 ± 0.46	1.3767 ± 0.00051	1146.5 ± 1.6
298.15 K, x1 = 0.2344	785.78 ± 0.46	1.3786 ± 0.00051	1157.5 ± 1.6
298.15 K, x1 = 0.3338	787.81 ± 0.46	1.37996 ± 0.00051	1165.5 ± 1.6
298.15 K, x1 = 0.4126	789.5 ± 0.46	1.38098 ± 0.00051	1171.7 ± 1.6
298.15 K, x1 = 0.4972	791.25 ± 0.46	1.38207 ± 0.00051	1178.4 ± 1.6
298.15 K, x1 = 0.6036	793.49 ± 0.46	1.3834 ± 0.00051	1186.6 ± 1.6
298.15 K, x1 = 0.7125	795.82 ± 0.47	1.38472 ± 0.0005	1195 ± 1.6
298.15 K, x1 = 0.8043	797.8 ± 0.47	1.3858 ± 0.0005	1202 ± 1.6
298.15 K, x1 = 0.9009	799.87 ± 0.47	1.3869 ± 0.0005	1209.1 ± 1.6
298.15 K, x1 = 1	802.09 ± 0.41	1.38782 ± 0.00049	1216 ± 1.4
308.15 K, x1 = 0.0978	774.13 ± 0.45	1.3723 ± 0.00051	1110.6 ± 1.6
308.15 K, x1 = 0.2344	776.72 ± 0.46	1.37412 ± 0.00051	1120.8 ± 1.6
308.15 K, x1 = 0.3338	778.65 ± 0.46	1.3754 ± 0.00051	1128.1 ± 1.6
308.15 K, x1 = 0.4126	780.23 ± 0.46	1.37637 ± 0.00051	1133.8 ± 1.6
308.15 K, x1 = 0.4972	781.85 ± 0.46	1.37741 ± 0.0005	1139.9 ± 1.6
308.15 K, x1 = 0.6036	783.93 ± 0.46	1.37867 ± 0.0005	1147.5 ± 1.6
308.15 K, x1 = 0.7125	786.12 ± 0.46	1.37993 ± 0.0005	1155.2 ± 1.6
308.15 K, x1 = 0.8043	788.05 ± 0.46	1.38098 ± 0.0005	1161.6 ± 1.6
308.15 K, x1 = 0.9009	790.07 ± 0.47	1.382 ± 0.0005	1168.2 ± 1.6
308.15 K, x1 = 1	792.32 ± 0.41	1.38284 ± 0.00049	1174.4 ± 1.4
318.15 K, x1 = 0.0978	764.87 ± 0.45	1.3677 ± 0.00051	1074.9 ± 1.6
318.15 K, x1 = 0.2344	767.32 ± 0.45	1.36948 ± 0.00051	1084.2 ± 1.6
318.15 K, x1 = 0.3338	769.16 ± 0.46	1.37072 ± 0.00051	1090.9 ± 1.6
318.15 K, x1 = 0.4126	770.69 ± 0.46	1.37167 ± 0.0005	1096.1 ± 1.6
318.15 K, x1 = 0.4972	772.19 ± 0.45	1.37268 ± 0.0005	1101.7 ± 1.6
318.15 K, x1 = 0.6036	774.18 ± 0.46	1.3739 ± 0.0005	1108.7 ± 1.6
318.15 K, x1 = 0.7125	776.29 ± 0.46	1.37511 ± 0.0005	1115.7 ± 1.6
318.15 K, x1 = 0.8043	778.16 ± 0.46	1.3761 ± 0.0005	1121.5 ± 1.5
318.15 K, x1 = 0.9009	780.17 ± 0.47	1.37708 ± 0.0005	1127.6 ± 1.5
318.15 K, x1 = 1	782.44 ± 0.41	1.37782 ± 0.00049	1133.3 ± 1.4
328.15 K, x1 = 0.0978	755.34 ± 0.44	1.36295 ± 0.00051	1039 ± 1.6
328.15 K, x1 = 0.2344	757.63 ± 0.45	1.36471 ± 0.00051	1047.7 ± 1.5
328.15 K, x1 = 0.3338	759.42 ± 0.45	1.36591 ± 0.0005	1054 ± 1.5
328.15 K, x1 = 0.4126	760.87 ± 0.45	1.36686 ± 0.0005	1058.8 ± 1.5
328.15 K, x1 = 0.4972	762.28 ± 0.45	1.36785 ± 0.0005	1064.1 ± 1.5
328.15 K, x1 = 0.6036	764.21 ± 0.45	1.36905 ± 0.0005	1070.6 ± 1.5
328.15 K, x1 = 0.7125	766.2 ± 0.46	1.37023 ± 0.0005	1077.2 ± 1.5
328.15 K, x1 = 0.8043	768.09 ± 0.47	1.3712 ± 0.0005	1082.6 ± 1.5
328.15 K, x1 = 0.9009	770.12 ± 0.47	1.37215 ± 0.0005	1088.3 ± 1.5
328.15 K, x1 = 1	772.43 ± 0.42	1.3728 ± 0.00049	1093.6 ± 1.4
338.15 K, x1 = 0.0978	744.73 ± 0.44	1.3579 ± 0.00051	1003.3 ± 1.5
338.15 K, x1 = 0.2344	746.99 ± 0.45	1.35966 ± 0.00051	1011.5 ± 1.5
338.15 K, x1 = 0.3338	748.79 ± 0.46	1.36085 ± 0.00051	1017.3 ± 1.5
338.15 K, x1 = 0.4126	750.28 ± 0.45	1.36181 ± 0.0005	1021.8 ± 1.5
338.15 K, x1 = 0.4972	751.71 ± 0.45	1.3628 ± 0.0005	1026.7 ± 1.5
338.15 K, x1 = 0.6036	753.67 ± 0.46	1.36398 ± 0.0005	1032.7 ± 1.5
338.15 K, x1 = 0.7125	755.74 ± 0.46	1.36515 ± 0.0005	1038.8 ± 1.5
338.15 K, x1 = 0.8043	757.71 ± 0.47	1.36612 ± 0.0005	1043.8 ± 1.5
338.15 K, x1 = 0.9009	759.83 ± 0.48	1.36705 ± 0.0005	1049 ± 1.5
338.15 K, x1 = 1	762.27 ± 0.42	1.36764 ± 0.00049	1053.8 ± 1.4

CCCC(C)=O [pentan-2-one] + CCC(C)O
Details	mass density, [1] [kg/m3]	refractive index, [2]	speed of sound, [1] [m/s]
298.15 K, x1 = 0.1227	801.36 ± 0.42	1.39423 ± 0.00049	1212.6 ± 1.4
298.15 K, x1 = 0.2361	800.45 ± 0.42	1.39353 ± 0.00049	1213.1 ± 1.4
298.15 K, x1 = 0.3467	800.01 ± 0.41	1.3928 ± 0.0005	1213.5 ± 1.4
298.15 K, x1 = 0.4522	799.88 ± 0.41	1.39205 ± 0.0005	1214 ± 1.4
298.15 K, x1 = 0.5521	799.79 ± 0.41	1.39133 ± 0.0005	1214.3 ± 1.4
298.15 K, x1 = 0.6518	799.88 ± 0.41	1.39059 ± 0.0005	1214.7 ± 1.4
298.15 K, x1 = 0.744	800.22 ± 0.42	1.38988 ± 0.0005	1215.1 ± 1.4
298.15 K, x1 = 0.8299	800.65 ± 0.42	1.38922 ± 0.0005	1215.4 ± 1.4
298.15 K, x1 = 0.919	801.23 ± 0.42	1.38853 ± 0.0005	1215.7 ± 1.4
298.15 K, x1 = 1	802.09 ± 0.41	1.38782 ± 0.00049	1216 ± 1.4
308.15 K, x1 = 0.1227	792.32 ± 0.43	1.38958 ± 0.00049	1175.7 ± 1.4
308.15 K, x1 = 0.2361	791.24 ± 0.42	1.38887 ± 0.00049	1175.5 ± 1.4
308.15 K, x1 = 0.3467	790.78 ± 0.42	1.38809 ± 0.0005	1175.4 ± 1.4
308.15 K, x1 = 0.4522	790.51 ± 0.41	1.38731 ± 0.0005	1175.3 ± 1.4
308.15 K, x1 = 0.5521	790.25 ± 0.41	1.38655 ± 0.0005	1175.2 ± 1.4
308.15 K, x1 = 0.6518	790.23 ± 0.41	1.38577 ± 0.0005	1175 ± 1.4
308.15 K, x1 = 0.744	790.31 ± 0.41	1.38503 ± 0.0005	1174.9 ± 1.4
308.15 K, x1 = 0.8299	790.62 ± 0.42	1.38434 ± 0.0005	1174.7 ± 1.4
308.15 K, x1 = 0.919	791.25 ± 0.43	1.38358 ± 0.0005	1174.6 ± 1.4
308.15 K, x1 = 1	792.32 ± 0.41	1.38284 ± 0.00049	1174.4 ± 1.4
318.15 K, x1 = 0.1227	783.39 ± 0.44	1.38489 ± 0.00049	1138.5 ± 1.4
318.15 K, x1 = 0.2361	782.07 ± 0.42	1.38415 ± 0.0005	1137.9 ± 1.4
318.15 K, x1 = 0.3467	781.42 ± 0.42	1.38335 ± 0.0005	1137.2 ± 1.4
318.15 K, x1 = 0.4522	780.93 ± 0.42	1.38254 ± 0.0005	1136.6 ± 1.4
318.15 K, x1 = 0.5521	780.55 ± 0.42	1.38177 ± 0.0005	1136.1 ± 1.4
318.15 K, x1 = 0.6518	780.41 ± 0.41	1.38095 ± 0.0005	1135.5 ± 1.4
318.15 K, x1 = 0.744	780.42 ± 0.42	1.38018 ± 0.0005	1134.9 ± 1.4
318.15 K, x1 = 0.8299	780.73 ± 0.42	1.37943 ± 0.0005	1134.4 ± 1.4
318.15 K, x1 = 0.919	781.32 ± 0.43	1.3786 ± 0.0005	1133.8 ± 1.4
318.15 K, x1 = 1	782.44 ± 0.41	1.37782 ± 0.00049	1133.3 ± 1.4
328.15 K, x1 = 0.1227	773.65 ± 0.44	1.37968 ± 0.00049	1101 ± 1.4
328.15 K, x1 = 0.2361	772.15 ± 0.43	1.37897 ± 0.00049	1100.1 ± 1.4
328.15 K, x1 = 0.3467	771.4 ± 0.42	1.37819 ± 0.0005	1099.2 ± 1.4
328.15 K, x1 = 0.4522	770.91 ± 0.42	1.3774 ± 0.0005	1098.3 ± 1.4
328.15 K, x1 = 0.5521	770.35 ± 0.42	1.37666 ± 0.0005	1097.5 ± 1.4
328.15 K, x1 = 0.6518	770.02 ± 0.42	1.37589 ± 0.0005	1096.6 ± 1.4
328.15 K, x1 = 0.744	770.12 ± 0.42	1.37513 ± 0.0005	1095.8 ± 1.4
328.15 K, x1 = 0.8299	770.56 ± 0.42	1.37437 ± 0.0005	1095.1 ± 1.4
328.15 K, x1 = 0.919	771.22 ± 0.43	1.37356 ± 0.0005	1094.3 ± 1.4
328.15 K, x1 = 1	772.43 ± 0.42	1.3728 ± 0.00049	1093.6 ± 1.4
338.15 K, x1 = 0.1227	763.26 ± 0.45	1.37559 ± 0.00049	1063 ± 1.4
338.15 K, x1 = 0.2361	761.48 ± 0.43	1.37472 ± 0.0005	1061.8 ± 1.4
338.15 K, x1 = 0.3467	760.59 ± 0.42	1.37383 ± 0.0005	1060.7 ± 1.4
338.15 K, x1 = 0.4522	760.08 ± 0.42	1.37293 ± 0.0005	1059.6 ± 1.4
338.15 K, x1 = 0.5521	759.46 ± 0.42	1.37206 ± 0.0005	1058.6 ± 1.4
338.15 K, x1 = 0.6518	759.14 ± 0.42	1.37116 ± 0.0005	1057.6 ± 1.4
338.15 K, x1 = 0.744	759.29 ± 0.42	1.37027 ± 0.0005	1056.6 ± 1.4
338.15 K, x1 = 0.8299	759.87 ± 0.42	1.36944 ± 0.0005	1055.7 ± 1.4
338.15 K, x1 = 0.919	760.73 ± 0.44	1.36852 ± 0.0005	1054.8 ± 1.4
338.15 K, x1 = 1	762.27 ± 0.42	1.36764 ± 0.00049	1053.8 ± 1.4
